Laboratory results taken from ChEMBL document CHEMBL4411282, “Fragment-based drug discovery of triazole inhibitors to block PDEδ-RAS protein-protein interaction” (Eur J Med Chem, 2019).

Tested on: A549
Experiment: Antiproliferative activity against human A549 cells harboring KRAS G12S point mutant after 72 hrs by SRB assay
Conditions: A549, 72 h

Q: With `c1ccc(Cn2c(-c3ccc(OC[C@H](C4CCNCC4)n4c(-c5ccccc5)nc5ccccc54)cc3)nc3ccccc32)cc1` as the compound, how does the IC50 read?
A: 6.4 µM

Q: For `COc1ccc(CSc2nnc(-c3ccc(OCC(=O)Nc4ccc(N(C)C)cc4)cc3)n2Cc2ccccc2)cc1`, which IC50 is on record?
A: 17.1 µM

Q: How did the IC50 turn out when `COc1ccc(CSc2nnc(-c3ccc(OCC(=O)Nc4cc(C)nn4C)cc3)n2Cc2ccccc2)cc1` was run?
A: 18.3 µM

Q: How did the IC50 turn out when `COc1ccc(CCc2nnc(-c3ccc(OCC(=O)Nc4cnn(C)c4)cc3)n2Cc2ccccc2)cc1` was run?
A: 24.1 µM

Q: Which IC50 does the source give for `CC(C)Cc1nnc(SCc2ccc(C(=O)Nc3ccc4ncccc4c3)cc2)n1Cc1ccccc1` here?
A: 10.3 µM

Q: With `COc1ccc(CSc2nnc(-c3ccc(OCC(=O)NC4CCCCC4)cc3)n2Cc2ccccc2)cc1` as the compound, how does the IC50 read?
A: 19.3 µM

Q: With `COc1ccc(CSc2nnc(-c3ccc(OCC(=O)Nc4cnn(C)c4)cc3)n2Cc2ccccc2)cc1` as the compound, how does the IC50 read?
A: 36 µM

Q: For `COc1ccc(CSc2nnc(-c3ccc(OCC(=O)Nc4cccnc4)cc3)n2Cc2ccccc2)cc1`, which IC50 is on record?
A: 11.3 µM

Q: With `CCC(Oc1ccc(-c2nnc(CCc3ccc(OC)cc3)n2Cc2ccccc2)cc1)C(=O)Nc1cnn(C)c1` (stereo not drawn) as the compound, how does the IC50 read?
A: > 50 µM

Q: `CC(C)Cc1nnc(SCc2ccc(C(=O)NC3CCCCC3)cc2)n1Cc1ccccc1` was tested. Which IC50 did it give?
A: 32.6 µM

Q: Which IC50 does the source give for `COc1ccc(CCc2nnc(-c3ccc(OC(C)C(=O)Nc4cnn(C)c4)cc3)n2Cc2ccccc2)cc1` (stereo not drawn) here?
A: > 50 µM

Q: With `CC(C)Cc1nnc(SCc2ccc(C(=O)Nc3cccc(F)c3)cc2)n1Cc1ccccc1` as the compound, how does the IC50 read?
A: 20.3 µM

Q: How did the IC50 turn out when `COc1ccc(CCc2nnc(-c3ccc(OC(C)(C)C(=O)Nc4cnn(C)c4)cc3)n2Cc2ccccc2)cc1` was run?
A: > 50 µM
